# Calls of active or inactive are those of the source.
# Tested on: not listed separately
# Test: Antioxidant activity assessed as metal chelating activity by measuring inhibition of ferrozine-Fe2+ complex formation at 25 to 100 ug/ml
# Type: functional
# Conditions: not given
row,Structure (SMILES),Activity
1,Cc1ccc(C2=CC(c3c(-c4ccccc4)[nH]c4ccc(C)cc34)c3c(N)n[nH]c3O2)cc1 (stereo unspecified),Active
2,Cc1ccc2[nH]c(-c3ccccc3)c(C3C=C(c4ccc(Cl)cc4)Oc4[nH]nc(N)c43)c2c1 (stereo unspecified),Active

# Tested on: Radical scavenging activity
# Test: Antioxidant activity assessed as DPPH radical scavenging activity at 100 ug/ml
# Type: functional
# Conditions: not given
row,Structure (SMILES),Activity
1,Cc1ccc(C2=CC(c3c(-c4ccccc4)[nH]c4ccc(C)cc34)c3c(N)n[nH]c3O2)cc1 (stereo unspecified),Active
2,Cc1ccc2[nH]c(-c3ccccc3)c(C3C=C(c4ccc(Cl)cc4)Oc4[nH]nc(N)c43)c2c1 (stereo unspecified),Active

# Tested on: Aspergillus flavus
# Test: Antimicrobial activity against Aspergillus flavus MTCC 1973 at 500 ug/ml after 72 hrs by cup plate method
# Type: functional
# Conditions: MTCC 1973, 72 h, read-out: IZ
row,Structure (SMILES),zone of inhibition at 500 µg/mL
1,Cc1ccc(C2=CC(c3c(-c4ccccc4)[nH]c4ccc(C)cc34)c3c(N)n[nH]c3O2)cc1 (stereo unspecified),4 mm
2,Cc1ccc2[nH]c(-c3ccccc3)c(C3C=C(c4ccc(Cl)cc4)Oc4[nH]nc(N)c43)c2c1 (stereo unspecified),5 mm

# Tested on: Aspergillus flavus
# Test: Antimicrobial activity against Aspergillus flavus MTCC 1973 at 750 ug/ml after 72 hrs by cup plate method
# Type: functional
# Conditions: MTCC 1973, 72 h, read-out: IZ
row,Structure (SMILES),zone of inhibition at 750 µg/mL
1,Cc1ccc(C2=CC(c3c(-c4ccccc4)[nH]c4ccc(C)cc34)c3c(N)n[nH]c3O2)cc1 (stereo unspecified),4 mm
2,Cc1ccc2[nH]c(-c3ccccc3)c(C3C=C(c4ccc(Cl)cc4)Oc4[nH]nc(N)c43)c2c1 (stereo unspecified),5 mm

# Tested on: Aspergillus flavus
# Test: Antimicrobial activity against Aspergillus flavus MTCC 1973 at 1000 ug/ml after 72 hrs by cup plate method
# Type: functional
# Conditions: MTCC 1973, 72 h, read-out: IZ
row,Structure (SMILES),zone of inhibition at 1000 µg/mL
1,Cc1ccc(C2=CC(c3c(-c4ccccc4)[nH]c4ccc(C)cc34)c3c(N)n[nH]c3O2)cc1 (stereo unspecified),3 mm
2,Cc1ccc2[nH]c(-c3ccccc3)c(C3C=C(c4ccc(Cl)cc4)Oc4[nH]nc(N)c43)c2c1 (stereo unspecified),2 mm

# Tested on: Aspergillus terreus
# Test: Antimicrobial activity against Aspergillus terreus MTCC 1782 at 500 ug/ml after 72 hrs by cup plate method
# Type: functional
# Conditions: MTCC 1782, 72 h, read-out: IZ
row,Structure (SMILES),zone of inhibition at 500 µg/mL
1,Cc1ccc(C2=CC(c3c(-c4ccccc4)[nH]c4ccc(C)cc34)c3c(N)n[nH]c3O2)cc1 (stereo unspecified),0 mm
2,Cc1ccc2[nH]c(-c3ccccc3)c(C3C=C(c4ccc(Cl)cc4)Oc4[nH]nc(N)c43)c2c1 (stereo unspecified),10 mm

# Tested on: Aspergillus terreus
# Test: Antimicrobial activity against Aspergillus terreus MTCC 1782 at 750 ug/ml after 72 hrs by cup plate method
# Type: functional
# Conditions: MTCC 1782, 72 h, read-out: IZ
row,Structure (SMILES),zone of inhibition at 750 µg/mL
1,Cc1ccc(C2=CC(c3c(-c4ccccc4)[nH]c4ccc(C)cc34)c3c(N)n[nH]c3O2)cc1 (stereo unspecified),0 mm
2,Cc1ccc2[nH]c(-c3ccccc3)c(C3C=C(c4ccc(Cl)cc4)Oc4[nH]nc(N)c43)c2c1 (stereo unspecified),10 mm

# Tested on: Aspergillus terreus
# Test: Antimicrobial activity against Aspergillus terreus MTCC 1782 at 1000 ug/ml after 72 hrs by cup plate method
# Type: functional
# Conditions: MTCC 1782, 72 h, read-out: IZ
row,Structure (SMILES),zone of inhibition at 1000 µg/mL
1,Cc1ccc(C2=CC(c3c(-c4ccccc4)[nH]c4ccc(C)cc34)c3c(N)n[nH]c3O2)cc1 (stereo unspecified),0 mm
2,Cc1ccc2[nH]c(-c3ccccc3)c(C3C=C(c4ccc(Cl)cc4)Oc4[nH]nc(N)c43)c2c1 (stereo unspecified),10 mm

# Tested on: Aspergillus oryzae
# Test: Antimicrobial activity against Aspergillus oryzae MTCC 3567 at 500 ug/ml after 72 hrs by cup plate method
# Type: functional
# Conditions: MTCC 3567, 72 h, read-out: IZ
row,Structure (SMILES),zone of inhibition at 500 µg/mL
1,Cc1ccc(C2=CC(c3c(-c4ccccc4)[nH]c4ccc(C)cc34)c3c(N)n[nH]c3O2)cc1 (stereo unspecified),10 mm
2,Cc1ccc2[nH]c(-c3ccccc3)c(C3C=C(c4ccc(Cl)cc4)Oc4[nH]nc(N)c43)c2c1 (stereo unspecified),8 mm

# Tested on: Aspergillus oryzae
# Test: Antimicrobial activity against Aspergillus oryzae MTCC 3567 at 750 ug/ml after 72 hrs by cup plate method
# Type: functional
# Conditions: MTCC 3567, 72 h, read-out: IZ
row,Structure (SMILES),zone of inhibition at 750 µg/mL
1,Cc1ccc(C2=CC(c3c(-c4ccccc4)[nH]c4ccc(C)cc34)c3c(N)n[nH]c3O2)cc1 (stereo unspecified),9 mm
2,Cc1ccc2[nH]c(-c3ccccc3)c(C3C=C(c4ccc(Cl)cc4)Oc4[nH]nc(N)c43)c2c1 (stereo unspecified),7 mm

# Tested on: Aspergillus oryzae
# Test: Antimicrobial activity against Aspergillus oryzae MTCC 3567 at 1000 ug/ml after 72 hrs by cup plate method
# Type: functional
# Conditions: MTCC 3567, 72 h, read-out: IZ
row,Structure (SMILES),zone of inhibition at 1000 µg/mL
1,Cc1ccc(C2=CC(c3c(-c4ccccc4)[nH]c4ccc(C)cc34)c3c(N)n[nH]c3O2)cc1 (stereo unspecified),9 mm
2,Cc1ccc2[nH]c(-c3ccccc3)c(C3C=C(c4ccc(Cl)cc4)Oc4[nH]nc(N)c43)c2c1 (stereo unspecified),7 mm

# Tested on: Aspergillus niger
# Test: Antimicrobial activity against Aspergillus niger MTCC 281 at 500 ug/ml after 72 hrs by cup plate method
# Type: functional
# Conditions: MTCC 281, 72 h, read-out: IZ
row,Structure (SMILES),zone of inhibition at 500 µg/mL
1,Cc1ccc(C2=CC(c3c(-c4ccccc4)[nH]c4ccc(C)cc34)c3c(N)n[nH]c3O2)cc1 (stereo unspecified),9 mm
2,Cc1ccc2[nH]c(-c3ccccc3)c(C3C=C(c4ccc(Cl)cc4)Oc4[nH]nc(N)c43)c2c1 (stereo unspecified),5 mm

# Tested on: Aspergillus niger
# Test: Antimicrobial activity against Aspergillus niger MTCC 281 at 750 ug/ml after 72 hrs by cup plate method
# Type: functional
# Conditions: MTCC 281, 72 h, read-out: IZ
row,Structure (SMILES),zone of inhibition at 750 µg/mL
1,Cc1ccc(C2=CC(c3c(-c4ccccc4)[nH]c4ccc(C)cc34)c3c(N)n[nH]c3O2)cc1 (stereo unspecified),9 mm
2,Cc1ccc2[nH]c(-c3ccccc3)c(C3C=C(c4ccc(Cl)cc4)Oc4[nH]nc(N)c43)c2c1 (stereo unspecified),3 mm

# Tested on: Aspergillus niger
# Test: Antimicrobial activity against Aspergillus niger MTCC 281 at 1000 ug/ml after 72 hrs by cup plate method
# Type: functional
# Conditions: MTCC 281, 72 h, read-out: IZ
row,Structure (SMILES),zone of inhibition at 1000 µg/mL
1,Cc1ccc2[nH]c(-c3ccccc3)c(C3C=C(c4ccc(Cl)cc4)Oc4[nH]nc(N)c43)c2c1 (stereo unspecified),2 mm

# Tested on: Pseudomonas aeruginosa
# Test: Antimicrobial activity against Pseudomonas aeruginosa MTCC 1688 at 500 ug/ml after 24 hrs by cup plate method
# Type: functional
# Conditions: MTCC 1688, 24 h, read-out: IZ
row,Structure (SMILES),zone of inhibition at 500 µg/mL
1,Cc1ccc(C2=CC(c3c(-c4ccccc4)[nH]c4ccc(C)cc34)c3c(N)n[nH]c3O2)cc1 (stereo unspecified),8 mm
2,Cc1ccc2[nH]c(-c3ccccc3)c(C3C=C(c4ccc(Cl)cc4)Oc4[nH]nc(N)c43)c2c1 (stereo unspecified),6 mm

# Tested on: Pseudomonas aeruginosa
# Test: Antimicrobial activity against Pseudomonas aeruginosa MTCC 1688 at 750 ug/ml after 24 hrs by cup plate method
# Type: functional
# Conditions: MTCC 1688, 24 h, read-out: IZ
row,Structure (SMILES),zone of inhibition at 750 µg/mL
1,Cc1ccc(C2=CC(c3c(-c4ccccc4)[nH]c4ccc(C)cc34)c3c(N)n[nH]c3O2)cc1 (stereo unspecified),4 mm
2,Cc1ccc2[nH]c(-c3ccccc3)c(C3C=C(c4ccc(Cl)cc4)Oc4[nH]nc(N)c43)c2c1 (stereo unspecified),6 mm

# Tested on: Pseudomonas aeruginosa
# Test: Antimicrobial activity against Pseudomonas aeruginosa MTCC 1688 at 1000 ug/ml after 24 hrs by cup plate method
# Type: functional
# Conditions: MTCC 1688, 24 h, read-out: IZ
row,Structure (SMILES),zone of inhibition at 1000 µg/mL
1,Cc1ccc(C2=CC(c3c(-c4ccccc4)[nH]c4ccc(C)cc34)c3c(N)n[nH]c3O2)cc1 (stereo unspecified),4 mm
2,Cc1ccc2[nH]c(-c3ccccc3)c(C3C=C(c4ccc(Cl)cc4)Oc4[nH]nc(N)c43)c2c1 (stereo unspecified),5 mm

# Tested on: Klebsiella pneumoniae
# Test: Antimicrobial activity against Klebsiella pneumoniae NCTC 13368 at 500 ug/ml after 24 hrs by cup plate method
# Type: functional
# Conditions: NCTC 13368, 24 h, read-out: IZ
row,Structure (SMILES),zone of inhibition at 500 µg/mL
1,Cc1ccc(C2=CC(c3c(-c4ccccc4)[nH]c4ccc(C)cc34)c3c(N)n[nH]c3O2)cc1 (stereo unspecified),11 mm
2,Cc1ccc2[nH]c(-c3ccccc3)c(C3C=C(c4ccc(Cl)cc4)Oc4[nH]nc(N)c43)c2c1 (stereo unspecified),12 mm

# Tested on: Klebsiella pneumoniae
# Test: Antimicrobial activity against Klebsiella pneumoniae NCTC 13368 at 750 ug/ml after 24 hrs by cup plate method
# Type: functional
# Conditions: NCTC 13368, 24 h, read-out: IZ
row,Structure (SMILES),zone of inhibition at 750 µg/mL
1,Cc1ccc(C2=CC(c3c(-c4ccccc4)[nH]c4ccc(C)cc34)c3c(N)n[nH]c3O2)cc1 (stereo unspecified),10 mm
2,Cc1ccc2[nH]c(-c3ccccc3)c(C3C=C(c4ccc(Cl)cc4)Oc4[nH]nc(N)c43)c2c1 (stereo unspecified),12 mm

# Tested on: Klebsiella pneumoniae
# Test: Antimicrobial activity against Klebsiella pneumoniae NCTC 13368 at 1000 ug/ml after 24 hrs by cup plate method
# Type: functional
# Conditions: NCTC 13368, 24 h, read-out: IZ
row,Structure (SMILES),zone of inhibition at 1000 µg/mL
1,Cc1ccc(C2=CC(c3c(-c4ccccc4)[nH]c4ccc(C)cc34)c3c(N)n[nH]c3O2)cc1 (stereo unspecified),10 mm
2,Cc1ccc2[nH]c(-c3ccccc3)c(C3C=C(c4ccc(Cl)cc4)Oc4[nH]nc(N)c43)c2c1 (stereo unspecified),12 mm

# Tested on: Staphylococcus aureus
# Test: Antimicrobial activity against Staphylococcus aureus ATCC 29513 at 500 ug/ml after 24 hrs by cup plate method
# Type: functional
# Conditions: ATCC 29513, 24 h, read-out: IZ
row,Structure (SMILES),zone of inhibition at 500 µg/mL
1,Cc1ccc(C2=CC(c3c(-c4ccccc4)[nH]c4ccc(C)cc34)c3c(N)n[nH]c3O2)cc1 (stereo unspecified),7 mm
2,Cc1ccc2[nH]c(-c3ccccc3)c(C3C=C(c4ccc(Cl)cc4)Oc4[nH]nc(N)c43)c2c1 (stereo unspecified),2 mm

# Tested on: Staphylococcus aureus
# Test: Antimicrobial activity against Staphylococcus aureus ATCC 29513 at 750 ug/ml after 24 hrs by cup plate method
# Type: functional
# Conditions: ATCC 29513, 24 h, read-out: IZ
row,Structure (SMILES),zone of inhibition at 750 µg/mL
1,Cc1ccc(C2=CC(c3c(-c4ccccc4)[nH]c4ccc(C)cc34)c3c(N)n[nH]c3O2)cc1 (stereo unspecified),5 mm
2,Cc1ccc2[nH]c(-c3ccccc3)c(C3C=C(c4ccc(Cl)cc4)Oc4[nH]nc(N)c43)c2c1 (stereo unspecified),0 mm

# Tested on: Staphylococcus aureus
# Test: Antimicrobial activity against Staphylococcus aureus ATCC 29513 at 1000 ug/ml after 24 hrs by cup plate method
# Type: functional
# Conditions: ATCC 29513, 24 h, read-out: IZ
row,Structure (SMILES),zone of inhibition at 1000 µg/mL
1,Cc1ccc(C2=CC(c3c(-c4ccccc4)[nH]c4ccc(C)cc34)c3c(N)n[nH]c3O2)cc1 (stereo unspecified),5 mm
2,Cc1ccc2[nH]c(-c3ccccc3)c(C3C=C(c4ccc(Cl)cc4)Oc4[nH]nc(N)c43)c2c1 (stereo unspecified),0 mm

# Tested on: Escherichia coli
# Test: Antimicrobial activity against Escherichia coli MTCC 723 at 500 ug/ml after 24 hrs by cup plate method
# Type: functional
# Conditions: MTCC 723, 24 h, read-out: IZ
row,Structure (SMILES),zone of inhibition at 500 µg/mL
1,Cc1ccc(C2=CC(c3c(-c4ccccc4)[nH]c4ccc(C)cc34)c3c(N)n[nH]c3O2)cc1 (stereo unspecified),8 mm
2,Cc1ccc2[nH]c(-c3ccccc3)c(C3C=C(c4ccc(Cl)cc4)Oc4[nH]nc(N)c43)c2c1 (stereo unspecified),9 mm

# Tested on: Escherichia coli
# Test: Antimicrobial activity against Escherichia coli MTCC 723 at 750 ug/ml after 24 hrs by cup plate method
# Type: functional
# Conditions: MTCC 723, 24 h, read-out: IZ
row,Structure (SMILES),zone of inhibition at 750 µg/mL
1,Cc1ccc(C2=CC(c3c(-c4ccccc4)[nH]c4ccc(C)cc34)c3c(N)n[nH]c3O2)cc1 (stereo unspecified),9 mm
2,Cc1ccc2[nH]c(-c3ccccc3)c(C3C=C(c4ccc(Cl)cc4)Oc4[nH]nc(N)c43)c2c1 (stereo unspecified),8 mm

# Tested on: Escherichia coli
# Test: Antimicrobial activity against Escherichia coli MTCC 723 at 1000 ug/ml after 24 hrs by cup plate method
# Type: functional
# Conditions: MTCC 723, 24 h, read-out: IZ
row,Structure (SMILES),zone of inhibition at 1000 µg/mL
1,Cc1ccc(C2=CC(c3c(-c4ccccc4)[nH]c4ccc(C)cc34)c3c(N)n[nH]c3O2)cc1 (stereo unspecified),10 mm
2,Cc1ccc2[nH]c(-c3ccccc3)c(C3C=C(c4ccc(Cl)cc4)Oc4[nH]nc(N)c43)c2c1 (stereo unspecified),8 mm

# Reference: ChEMBL document CHEMBL2346657, “Synthesis of novel 2-amino-4-(5'-substituted 2'-phenyl-1H-indol-3'-yl)-6-aryl-4H-pyran-3-carbonitrile derivatives as antimicrobial and antioxidant agents” (2013)
